# Molecular target: T1, YqjM (Bacillus subtilis, UniProt P54550)
# T1 construct: gene namA; purified YqjM flavoenzyme
# T1 sequence (P54550 2-338): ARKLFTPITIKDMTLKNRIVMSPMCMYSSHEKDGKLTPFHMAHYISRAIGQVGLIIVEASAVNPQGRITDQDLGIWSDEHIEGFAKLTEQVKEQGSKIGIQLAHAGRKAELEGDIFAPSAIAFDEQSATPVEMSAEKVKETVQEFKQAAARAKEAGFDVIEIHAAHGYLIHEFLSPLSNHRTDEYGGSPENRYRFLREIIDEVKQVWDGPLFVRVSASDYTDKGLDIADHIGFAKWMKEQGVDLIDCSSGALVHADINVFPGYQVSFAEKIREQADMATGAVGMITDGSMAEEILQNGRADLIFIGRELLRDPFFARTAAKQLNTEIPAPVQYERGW
# Test: stopped-flow, flavin reduction at […] nm, anaerobic
# Assay type: biochemical
# Details: Tris-HCl 50 mM, pH 7.5, 25 °C; 25 μM YqjM; reductive half reaction
row,Kd [µM],Structure (SMILES)
1,140 ± 24.5,NC(=O)C1=CN([C@@H]2O[C@H](COP(=O)(O)OP(=O)(O)OC[C@H]3O[C@@H](n4cnc5c(N)ncnc54)[C@H](O)[C@@H]3O)[C@@H](O)[C@H]2O)C=CC1 [NADH]
2,39.8 ± 7.1,NC(=O)C1=CN([C@@H]2O[C@H](COP(=O)(O)OP(=O)(O)OC[C@H]3O[C@@H](n4cnc5c(N)ncnc54)[C@H](OP(=O)(O)O)[C@@H]3O)[C@@H](O)[C@H]2O)C=CC1 [NADPH]

# — PMC7574619, “Engineering of NADPH Supply Boosts Photosynthesis-Driven Biotransformations” (ACS Catalysis, 2020)
